Tests used:
Details in all cases: incubation time: 72 h
[1] = test system: BT-474; test: normalised viability (% of control), CellTiter-Blue; higher = more viable cells (about 100 = DMSO control)
Description: (§1)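 DSRT, CellTiter-Blue viability, 72 h incubation. Signal is normalised to DMSO and benzethonium chloride controls. Value is the normalised response at dose 3.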

[2] = test system: BT-549; test: as above
Description: as §1

[3] = test system: CAL-148; test: as above
Description: as §1

[4] = test system: CAL-51; test: as above
Description: as §1

[5] = test system: CAL-85-1; test: as above
Description: as §1

[6] = test system: HCC1599; test: as above
Description: as §1

[7] = test system: HCC1937; test: as above
Description: as §1

[8] = test system: HDQ-P1; test: as above
Description: as §1

[9] = test system: Hs578T; test: as above
Description: as §1

[10] = test system: MDA-MB-231; test: as above
Description: as §1

[11] = test system: MDA-MB-436; test: as above
Description: as §1

[12] = test system: MDA-MB-468; test: as above
Description: as §1

[13] = test system: MFM-223; test: as above
Description: as §1

[14] = test system: SK-BR-3; test: as above
Description: as §1

[15] = test system: BT-474; test: normalised viability (% of control), CellTiter-Blue; higher = more viable cells (100 = DMSO, 0 = benzethonium chloride kill control)
Description: (§2)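 DSRT, CellTiter-Blue viability, 72 h incubation. Signal is normalised to DMSO and benzethonium chloride controls. Value is the normalised response at dose 1.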

[16] = test system: BT-549; test: as above
Description: as §2

[17] = test system: CAL-120; test: as above
Description: as §2

[18] = test system: CAL-148; test: as above
Description: as §2

[19] = test system: CAL-51; test: as above
Description: as §2

[20] = test system: CAL-85-1; test: as above
Description: as §2

[21] = test system: DU-4475; test: as above
Description: as §2

[22] = test system: HCC1143; test: as above
Description: as §2

[23] = test system: HCC1599; test: as above
Description: as §2

[24] = test system: HCC1937; test: as above
Description: as §2

[25] = test system: HDQ-P1; test: as above
Description: as §2

[26] = test system: Hs578T; test: as above
Description: as §2

[27] = test system: MDA-MB-231; test: as above
Description: as §2

[28] = test system: MDA-MB-436; test: as above
Description: as §2

[29] = test system: MDA-MB-453; test: as above
Description: as §2

[30] = test system: MDA-MB-468; test: as above
Description: as §2

[31] = test system: MFM-223; test: as above
Description: as §2

[32] = test system: SK-BR-3; test: as above
Description: as §2

Structure (SMILES): COc1ccc(-c2cc3c(C)nc(N)nc3n([C@H]3CC[C@H](OCCO)CC3)c2=O)cn1
- normalised viability ([1]; 100 nM): 67.8%
- normalised viability ([2]; 100 nM): 66.9%
- normalised viability ([3]; 10 nM): 98.1%
- normalised viability ([4]; 10 nM): 93.3%
- normalised viability ([5]; 10 nM): 95.3%
- normalised viability ([6]; 100 nM): 73.6%
- normalised viability ([7]; 100 nM): 65.8%
- normalised viability ([8]; 10 nM): 82%
- normalised viability ([9]; 100 nM): 60.5%
- normalised viability ([10]; 100 nM): 63.2%
- normalised viability ([11]; 100 nM): 80.6%
- normalised viability ([12]; 100 nM): 77.3%
- normalised viability ([13]; 100 nM): 68.8%
- normalised viability ([14]; 100 nM): 32.9%
- normalised viability ([15]; 1 nM): 100%
- normalised viability ([16]; 1 nM): 96.5%
- normalised viability ([17]; 1 nM): 120%
- normalised viability ([18]; 1 nM): 104%
- normalised viability ([19]; 1 nM): 95.4%
- normalised viability ([20]; 1 nM): 105%
- normalised viability ([21]; 1 nM): 106%
- normalised viability ([22]; 1 nM): 106%
- normalised viability ([23]; 1 nM): 130%
- normalised viability ([24]; 1 nM): 90.5%
- normalised viability ([25]; 1 nM): 75.8%
- normalised viability ([26]; 1 nM): 100%
- normalised viability ([27]; 1 nM): 118%
- normalised viability ([28]; 1 nM): 103%
- normalised viability ([29]; 1 nM): 87.1%
- normalised viability ([30]; 1 nM): 104%
- normalised viability ([31]; 1 nM): 102%
- normalised viability ([32]; 1 nM): 86.5%

Structure (SMILES): Cc1cccc(-c2nn3c(c2-c2ccnc4ccc(C(N)=O)cc24)CCC3)n1
- normalised viability ([1]; 10 nM): 107%
- normalised viability ([2]; 10 nM): 96.4%
- normalised viability ([3]; 1 nM): 99%
- normalised viability ([4]; 1 nM): 96.1%
- normalised viability ([5]; 1 nM): 97.7%
- normalised viability ([6]; 10 nM): 101%
- normalised viability ([7]; 10 nM): 122%
- normalised viability ([8]; 1 nM): 106%
- normalised viability ([9]; 10 nM): 96.2%
- normalised viability ([10]; 10 nM): 99%
- normalised viability ([11]; 10 nM): 127%
- normalised viability ([12]; 10 nM): 110%
- normalised viability ([13]; 10 nM): 96.8%
- normalised viability ([14]; 10 nM): 98.9%
- normalised viability ([15]; 0.1 nM): 116%
- normalised viability ([16]; 0.1 nM): 104%
- normalised viability ([17]; 0.1 nM): 98.2%
- normalised viability ([18]; 0.1 nM): 104%
- normalised viability ([19]; 0.1 nM): 93.5%
- normalised viability ([20]; 0.1 nM): 92.6%
- normalised viability ([21]; 0.1 nM): 113%
- normalised viability ([22]; 0.1 nM): 110%
- normalised viability ([23]; 0.1 nM): 99.3%
- normalised viability ([24]; 0.1 nM): 91.3%
- normalised viability ([25]; 0.1 nM): 109%
- normalised viability ([26]; 0.1 nM): 113%
- normalised viability ([27]; 0.1 nM): 113%
- normalised viability ([28]; 0.1 nM): 128%
- normalised viability ([29]; 0.1 nM): 108%
- normalised viability ([30]; 0.1 nM): 108%
- normalised viability ([31]; 0.1 nM): 103%
- normalised viability ([32]; 0.1 nM): 106%

— the supplement of paper PMC4862054
